Assay results taken from patent US20070060533A1, “Novel inhibitor of the formation of advanced glycation end product and aldose reductase inhibitor” (Meiji Seika Kaisha Ltd., priority 2003, published 2007).
pIC50: −log10 of the molar value.

Assays:
AGE formation = AGE formation suppression test (glucose + bovine serum albumin, fluorescence); assay type: biochemical; details: 67 mmol/L phosphate buffer pH 7.2, 60° C., 48 hours
Procedure: The test was conducted by a partially modified version of the method of Morimitu et al (Morimitu. Y. et. al., Biosci. Biotech. Biochem., 59, 2018-2021 (1995)). Specifically, glucose, each test substance dissolved in DMSO, and bovine serum albumin were incubated in a 67 mmol/L phosphate buffer (pH 7.2) at 60° C. for 48 hours. AGE was thus sufficiently formed by incubation. The amount of formed AGE was discovered by dilution of the reaction solution followed by measurement using a fluorospectrophotometer. The 50% inhibition concentration (IC50) was calculated using the thus obtained value. The lower the IC50, the higher the AGE-inhibiting activity. This indicates the usefulness of a substance as an inhibitor.
(§1) The test substances used herein were the anthocyanin-containing composition prepared in Example 1 and 4 types of crystalline anthocyanin prepared in Example 2.

aldose reductase = molecular target: T1, aldose reductase (Rattus norvegicus, UniProt P07943); test: Aldose-reductase-inhibiting activity test (rat lens crude enzyme); assay type: biochemical, Wistar male rats; details: DL glycerylaldehyde substrate, pH 7.0, 30° C.
T1 construct: the supernatant was used as a crude enzyme solution; from tissue; host or cells: lenses of Wistar male rats
Procedure: The test was conducted by a partially modified version of the method of Dufrane et al (Dufrane S. P. et al., Biochem. Med., 32, 99-105 (1984)). Specifically, the lenses of Wistar male rats were homogenized with 10 mmol/L 2-mercapto ethanol. The resultant was centrifuged, and then the supernatant was used as a crude enzyme solution. Each test substance was dissolved in DMSO and then added to a 180 mmol/L phosphate buffer (pH 7.0). 100 mmol/L lithium sulfate and 0.03 mmol/L NADPH were further added to the solution to initiate a reaction at 30° C. using 1 mmol/L DL glycerylaldehyde as a substrate. 0.5 mol/L HCl was added to stop the reaction. 6 mol/L sodium hydroxide containing 10 mmol/L imidazole was added to the solution. The solution was heated for 20 minutes at 60° C. to convert NADP to a fluorescent substance. The thus generated fluorescent substance was subjected to measurement using a fluorospectrophotometer. 50% inhibition concentration (IC50) was calculated using the thus obtained value.
as §1

SMILES	pIC50 (AGE formation)	pIC50 (aldose reductase)
N=C(N)NN [Aminoguanidine, aminoguanidine, reference compound]	2.92	
C[C@@H]1O[C@@H](OC[C@H]2O[C@@H](Oc3c(-c4ccc(O)c(O)c4)oc4cc(O)cc(O)c4c3=O)[C@H](O)[C@@H](O)[C@@H]2O)[C@H](O)[C@H](O)[C@H]1O [Rutin, rutin, reference compound]		5.05
OCC1OC(Oc2cc3c(O)cc(O)cc3[o+]c2-c2ccc(O)c(O)c2)C(O)C(O)C1O (stereo not shown) [Example 2 (C3G), cyanidin-3-O-glucoside]	3.88	5.33
CC1OC(OCC2OC(Oc3cc4c(O)cc(O)cc4[o+]c3-c3ccc(O)c(O)c3)C(O)C(O)C2O)C(O)C(O)C1O (stereo not shown) [Example 2 (C3R), cyanidin-3-O-rutinoside]	3.81	5.60

Results, then the molecule that gave them:

pIC50 (AGE formation)	pIC50 (aldose reductase)	SMILES
4.00	4.90	OCC1OC(Oc2cc3c(O)cc(O)cc3[o+]c2-c2cc(O)c(O)c(O)c2)C(O)C(O)C1O (stereo not shown) [Example 2 (D3G), delphinidin-3-O-glucoside]
3.79	4.82	CC1OC(OCC2OC(Oc3cc4c(O)cc(O)cc4[o+]c3-c3cc(O)c(O)c(O)c3)C(O)C(O)C2O)C(O)C(O)C1O (stereo not shown) [Example 2 (D3R), delphinidin-3-O-rutinoside]
